According to US20170204123A1, “Gold (I)-Phosphine Compounds as Anti-Bacterial Agents” (Auspherix Limited, priority 2014, published 2017):

test system: human hepatocyte cell line (HepG2); assay: HepG2 cell inhibition assay (CCK-8 cell viability); format: cell-based; conditions: 50% growth inhibition vs untreated control, 24 hours
Description: HepG2 Cell Inhibition Assay
Cell counting kit-8 (Sigma, CCK-8) assays were performed to assess the effect of compounds on cell viability. The assay is based on the reduction of a water-soluble tetrazolium salt (WST-8) by cellular dehydrogenases to a formazan dye which can be detected spectroscopically. 96-well plates were seeded with the human hepatocyte cell line (HepG2) at approximately 8×10^3 cells per well in Minimum Essential Medium Eagle (EMEM) with Earle's salts and sodium bicarbonate supplemented with 10% heat-inactivated foetal bovine serum 2 mM glutamine and 1% non-essential amino acids (NEAA). The following day serial dilutions of compounds (dissolved and diluted in DMSO) were added to the cells in duplicates. Control included an ‘untreated’ control where cells were grown in the presence of 1% DMSO and a medium only control (plus 1% DMSO). After 24 hours CCK-8 reagent (10 μl) was added to each well and cell viability was assessed by measuring the absorbance at a wavelength of 450 nm after 2-3 h hours. Only living cells can reduce the tetrazolium salts into coloured formazan products. Results were expressed as 50% growth inhibition (TD50) values compared to ‘untreated’ control. The therapeutic index was calculated as the ratio of the dose that produces growth inhibition in 50% of HepG2 cells divided by the dose where 50% of S. aureus growth is inhibited.

SMILES	HepG2 cell TD50 [µg/mL]
C[P](C)(=[Au][S]c1nc2ccccc2[nH]1)c1ccccc1 [Compound 13]	8.5
C[P](C)(=[Au][S]c1nc2ncccc2o1)c1ccccc1 [Compound 14]	9
COC(=O)[C@H](C[S][Au]=[P](C)(C)c1ccccc1)NC(C)=O [Compound 15]	6
CC[P](CC)(CC)=[Au][S]C[C@H](NC(C)=O)C(N)=O [Compound 16]	9
CC(C)[P](=[Au][S]c1nc2ccccc2[nH]1)(C(C)C)C(C)C [Compound 20]	6
COC(=O)[C@H](C[Se][Au]=[P](C)(c1ccccc1)c1ccccc1)NC(C)=O [Compound 22]	10
COC(=O)[C@H](C[Se][Au]=[P](C(C)C)(C(C)C)C(C)C)NC(C)=O [Compound 23]	12

test system: chinese hamster ovary cells (CHO); assay: CHO toxicity assay (CCK-8 cell viability); format: cell-based; conditions: 50% growth inhibition vs untreated control, 24 hours
Description: Cell counting kit-8 (Sigma, CCK-8) assays were performed to assess the effect of compounds on cell viability. The assay is based on the reduction of a water-soluble tetrazolium salt (WST-8) by cellular dehydrogenases to a formazan dye which can be detected spectroscopically. 96-well plates were seeded with chinese hamster ovary cells (CHO) cells at 7×10^3 cells per well in Dulbecco's modified Eagle's medium nutrient mixture F-12 Ham (containing 15 mM HEPES, NaHCO3, pyridoxine and L-glutamine) supplemented with 10% fetal bovine serum (FBS). The following day serial dilutions of compounds (dissolved and diluted in DMSO) were added to the cells in duplicates. Control included an ‘untreated’ control where cells were grown in the presence of 1% DMSO and a medium only control (plus 1% DMSO). After 24 hours CCK-8 reagent (10 μl) was added to each well and cell viability was assessed by measuring the absorbance at a wavelength of 450 nm after 2.5-3 hours. Only living cells can reduce the tetrazolium salts into coloured formazan products. Results were expressed as 50% growth inhibition (TD50) values compared to ‘untreated’ control.
The therapeutic index was calculated as the ratio of the dose that produces growth inhibition in 50% of CHO cells divided by the dose where 50% of S. aureus growth is inhibited.

SMILES	CHO cell TD 50 [µg/mL]
CC[P](CC)(CC)=[Au][S]C1CCOCC1 [Compound 1]	0.5
CC[P](CC)(CC)=[Au][S]C1CCN(C(=O)OC(C)(C)C)CC1 [Compound 2]	0.7
CC[P](CC)(CC)=[Au][S]c1ncccn1 [Compound 3]	0.6
CC[P](CC)(CC)=[Au][S]c1cccnn1 [Compound 4]	1.4
CC[P](CC)(CC)=[Au][S]c1nc2ccccc2[nH]1 [Compound 5]	1.5
CC[P](CC)(CC)=[Au][S][C@H]1CC[C@H](O)CC1 [Compound 6]	1.5
CC[P](CC)(CC)=[Au][S]C[C@H](NC(C)=O)C(=O)OC [Compound 7]	2.6
CC[P](CC)(CC)=[Au][S]c1nc2ncccc2o1 [Compound 8]	1.6
C[P](=[Au][S]c1nc2ccccc2[nH]1)(c1ccccc1)c1ccccc1 [Compound 9]	2.6
COC(=O)[C@H](C[S][Au]=[P](C)(c1ccccc1)c1ccccc1)NC(C)=O [Compound 10]	1.2
C[P](=[Au][S]c1nc2ncccc2o1)(c1ccccc1)c1ccccc1 [Compound 11]	2.0
CC[P](CC)(CC)=[Au][Se]C[C@H](NC(C)=O)C(=O)OC [Compound 12]	6.5
